Laboratory results taken from ChEMBL document CHEMBL4420076, “Amylin and calcitonin receptor agonist” (2017).
Numbered stars: 1 amine (or outer) side, 2 acyl side, 3 side chain; on linkers, the order of the positions; unused ones are H or OH. Peptide text beside a SMILES is read from it. * marks the point of attachment. C20 diacid = O=C(O)CCCCCCCCCCCCCCCCCCC(=O)*; γGlu = O=C(O)[C@H](CCC(=O)[*:2])N[*:1]; AEEA = NCCOCCOCC(=O)O

What was measured:
[1] = target: T1, Amylin receptor AMY3; CALCR/RAMP3 (Homo sapiens, UniProt O60896+P30988); assay: Agonist activity at human amylin receptor expressed in BHK570 cells co-expressing RAMP3 assessed as increase in intracellular cAMP concentration incubated for 3 hrs in absence of albumin by CRE luciferase reporter gene assay; type: functional, cell-based
T1 sequence (P30988 whole entry): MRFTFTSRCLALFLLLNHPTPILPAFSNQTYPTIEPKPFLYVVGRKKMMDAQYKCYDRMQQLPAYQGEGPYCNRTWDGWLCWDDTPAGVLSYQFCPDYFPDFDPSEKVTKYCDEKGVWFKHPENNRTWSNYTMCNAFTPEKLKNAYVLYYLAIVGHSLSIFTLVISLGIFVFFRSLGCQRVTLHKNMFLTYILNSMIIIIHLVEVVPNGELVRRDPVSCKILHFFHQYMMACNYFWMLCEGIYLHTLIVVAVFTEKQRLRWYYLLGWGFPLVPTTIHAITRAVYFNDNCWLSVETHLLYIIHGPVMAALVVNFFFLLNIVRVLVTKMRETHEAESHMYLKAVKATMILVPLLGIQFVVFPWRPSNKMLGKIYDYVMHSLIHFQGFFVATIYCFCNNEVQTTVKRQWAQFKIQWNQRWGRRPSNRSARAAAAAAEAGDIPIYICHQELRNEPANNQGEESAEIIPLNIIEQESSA
T1 sequence (O60896 whole entry): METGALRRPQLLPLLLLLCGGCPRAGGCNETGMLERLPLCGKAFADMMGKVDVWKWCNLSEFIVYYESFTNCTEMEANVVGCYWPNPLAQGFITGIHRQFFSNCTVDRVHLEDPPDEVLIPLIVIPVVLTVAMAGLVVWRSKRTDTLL

[2] = target: T2, Calcitonin receptor (Homo sapiens, UniProt P30988); assay: Agonist activity at human calcitonin receptor expressed in BHK570 cells assessed as increase in intracellular cAMP concentration incubated for 3 hrs in absence of albumin by CRE luciferase reporter gene assay; type: functional, cell-based
T2 sequence (P30988 whole entry): T1 sequence (P30988 whole entry)

[3] = target: T1, Amylin receptor AMY3; CALCR/RAMP3; assay: Agonist activity at human amylin receptor expressed in BHK570 cells co-expressing RAMP3 assessed as increase in intracellular cAMP concentration incubated for 3 hrs in presence of 10% FBS by CRE luciferase reporter gene assay; type: functional, cell-based
[4] = target: T2, Calcitonin receptor; assay: Agonist activity at human calcitonin receptor expressed in BHK570 cells assessed as increase in intracellular cAMP concentration incubated for 3 hrs in presence of 10% FBS by CRE luciferase reporter gene assay; type: functional, cell-based
[5] = Stability in pH 7.5 buffer assessed as lag time for fibril formation at 1 uM by Thioflavin T based fluorescence assay; type: physicochemical; conditions: pH 7.5, 1 µM
[6] = Stability in pH 7.5 buffer assessed as compound recovery at 1 uM by Thioflavin T based fluorescence assay; type: physicochemical; conditions: read-out: Drug recovery
[7] = Solubility in 100 mM glycylglycine buffer at pH 3.0 incubated for 18 hrs by UPLC analysis; type: physicochemical
[8] = Solubility in 100 mM glycylglycine buffer at pH 4.0 incubated for 18 hrs by UPLC analysis; type: physicochemical
[9] = Solubility in 100 mM bistrispropane buffer at pH 6.0 incubated for 18 hrs by UPLC analysis; type: physicochemical
[10] = Solubility in 100 mM glycylglycine buffer at pH 5.0 incubated for 18 hrs by UPLC analysis; type: physicochemical
[11] = Solubility in 100 mM bistrispropane buffer at pH 6.5 incubated for 18 hrs by UPLC analysis; type: physicochemical
[12] = Solubility in 100 mM bistrispropane buffer at pH 7.0 incubated for 18 hrs by UPLC analysis; type: physicochemical
[13] = Solubility in 100 mM bistrispropane buffer at pH 7.5 incubated for 18 hrs by UPLC analysis; type: physicochemical
[14] = Solubility in 100 mM bistrispropane buffer at pH 8.0 incubated for 18 hrs by UPLC analysis; type: physicochemical
[15] = target: T1, Amylin receptor AMY3; CALCR/RAMP3; assay: Displacement of [125I]-labeled rat amylin from human amylin receptor expressed in BHK tkts13 whole cells co-expressing RAMP3 incubated for 60 mins by scintillation proximity assay; type: cell-based

| EC50 [1] | EC50 [2] | EC50 [3] | EC50 [4] | Time [5] | remaining at 1 µM [6] | solubility at 18 h [7] | solubility at 18 h [8] | solubility at 18 h [9] | solubility at 18 h [10] | solubility at 18 h [11] | solubility at 18 h [12] | solubility at 18 h [13] | solubility at 18 h [14] | IC50 [15] | SMILES |
| --- | --- | --- | --- | --- | --- | --- | --- | --- | --- | --- | --- | --- | --- | --- | --- |
|  | 0.013 nM | 0.062 nM | 0.025 nM | > 45 h | 100% | ≥ 200 µM | ≥ 200 µM | ≥ 200 µM | ≥ 200 µM | ≥ 200 µM | ≥ 200 µM | ≥ 200 µM | ≥ 200 µM |  | CC(C)C[C@H](NC(=O)[C@H](C)NC(=O)[C@H](C)NC(=O)[C@@H](NC(=O)[C@H](CO)NC(=O)[C@H](CC(C)C)NC(=O)[C@H](CCC(=O)O)NC(=O)[C@H](CO)NC(=O)[C@H](C)NC(=O)COCCOCCNC(=O)COCCOCCNC(=O)COCCOCCNC(=O)COCCOCCNC(=O)CC[C@H](NC(=O)CCCCCCCCCCCCCCCCCCC(=O)O)C(=O)O)[C@@H](C)O)C(=O)NCC(=O)N[C@@H](CCCNC(=N)N)C(=O)N[C@@H](CC(C)C)C(=O)N[C@@H](CO)C(=O)N[C@@H](C)C(=O)N[C@@H](CCC(=O)O)C(=O)N[C@@H](CC(C)C)C(=O)N[C@@H](Cc1cnc[nH]1)C(=O)N[C@@H](CCC(=O)O)C(=O)N[C@@H](CC(C)C)C(=O)N[C@@H](C)C(=O)N[C@H](C(=O)N[C@@H](CC(C)C)C(=O)N1CCC[C@H]1C(=O)N[C@@H](CCCNC(=N)N)C(=O)N[C@H](C(=O)N[C@@H](CCC(=O)O)C(=O)N[C@H](C(=O)NCC(=O)N[C@@H](CO)C(=O)NCC(=O)N[C@@H](CO)C(=O)N1CCC[C@H]1C(N)=O)[C@@H](C)O)[C@@H](C)O)[C@@H](C)O ({C20 diacid-γGlu-AEEA-AEEA-AEEA-AEEA}-ASELSTAALGRLSAELHELATLPRTETGSGSP-NH2) |
| 0.067 nM | 0.04 nM |  | 0.102 nM | > 45 h | 100% | ≥ 200 µM | ≥ 200 µM | ≥ 200 µM | ≥ 200 µM | ≥ 200 µM | ≥ 200 µM | ≥ 200 µM | ≥ 200 µM | 1.89 nM | CC(C)C[C@H](NC(=O)[C@H](C)NC(=O)[C@H](C)NC(=O)[C@@H](NC(=O)[C@H](CO)NC(=O)[C@H](CC(C)C)NC(=O)[C@H](CCC(=O)O)NC(=O)[C@H](CO)NC(=O)[C@H](C)NC(=O)CC[C@H](NC(=O)CCCCCCCCCCCCCCCCCCC(=O)O)C(=O)O)[C@@H](C)O)C(=O)NCC(=O)N[C@@H](CCCNC(=N)N)C(=O)N[C@@H](CC(C)C)C(=O)N[C@@H](CO)C(=O)N[C@@H](C)C(=O)N[C@@H](CCC(=O)O)C(=O)N[C@@H](CC(C)C)C(=O)N[C@@H](Cc1cnc[nH]1)C(=O)N[C@@H](CCC(=O)O)C(=O)N[C@@H](CC(C)C)C(=O)N[C@@H](C)C(=O)N[C@H](C(=O)N[C@@H](CC(C)C)C(=O)N1CCC[C@H]1C(=O)N[C@@H](CCCNC(=N)N)C(=O)N[C@H](C(=O)N[C@@H](CCC(=O)O)C(=O)N[C@H](C(=O)NCC(=O)N[C@@H](CO)C(=O)NCC(=O)N[C@@H](CO)C(=O)N[C@@H](C)C(N)=O)[C@@H](C)O)[C@@H](C)O)[C@@H](C)O ({C20 diacid-γGlu}-ASELSTAALGRLSAELHELATLPRTETGSGSA-NH2) |
| 0.063 nM | 0.038 nM |  | 0.154 nM | > 45 h | 100% | ≥ 200 µM | ≥ 200 µM | ≥ 200 µM | ≥ 200 µM | ≥ 200 µM | ≥ 200 µM | ≥ 200 µM | ≥ 200 µM | 4.07 nM | CC(C)C[C@H](NC(=O)[C@H](C)NC(=O)[C@H](C)NC(=O)[C@@H](NC(=O)[C@H](CO)NC(=O)[C@H](CC(C)C)NC(=O)[C@H](CCC(=O)O)NC(=O)[C@H](CO)NC(=O)[C@H](C)NC(=O)CC[C@H](NC(=O)CCCCCCCCCCCCCCCCCCC(=O)O)C(=O)O)[C@@H](C)O)C(=O)NCC(=O)N[C@@H](CCCNC(=N)N)C(=O)N[C@@H](CC(C)C)C(=O)N[C@@H](CO)C(=O)N[C@@H](C)C(=O)N[C@@H](CCC(=O)O)C(=O)N[C@@H](CC(C)C)C(=O)N[C@@H](Cc1cnc[nH]1)C(=O)N[C@@H](CCC(=O)O)C(=O)N[C@@H](CC(C)C)C(=O)N[C@@H](C)C(=O)N[C@H](C(=O)N[C@@H](CC(C)C)C(=O)N1CCC[C@H]1C(=O)N[C@@H](CCCNC(=N)N)C(=O)N[C@H](C(=O)N[C@@H](CCC(=O)O)C(=O)N[C@H](C(=O)NCC(=O)N[C@@H](CO)C(=O)NCC(=O)N[C@@H](CO)C(=O)N[C@@H](CO)C(N)=O)[C@@H](C)O)[C@@H](C)O)[C@@H](C)O ({C20 diacid-γGlu}-ASELSTAALGRLSAELHELATLPRTETGSGSS-NH2) |

The remaining lines, values behind:

| SMILES | EC50 [1] | EC50 [2] | EC50 [3] | EC50 [4] | Time [5] | remaining at 1 µM [6] | solubility at 18 h [7] | solubility at 18 h [8] | solubility at 18 h [9] | solubility at 18 h [10] | solubility at 18 h [11] | solubility at 18 h [12] | solubility at 18 h [13] | solubility at 18 h [14] | IC50 [15] |
| --- | --- | --- | --- | --- | --- | --- | --- | --- | --- | --- | --- | --- | --- | --- | --- |
| CC(C)C[C@H](NC(=O)[C@H](C)NC(=O)[C@H](C)NC(=O)[C@@H](NC(=O)[C@H](CO)NC(=O)[C@H](CC(C)C)NC(=O)[C@H](CCC(=O)O)NC(=O)[C@H](CO)NC(=O)[C@H](C)NC(=O)COCCOCCNC(=O)COCCOCCNC(=O)COCCOCCNC(=O)COCCOCCNC(=O)COCCOCCNC(=O)CC[C@H](NC(=O)CCCCCCCCCCCCCCCCCCC(=O)O)C(=O)O)[C@@H](C)O)C(=O)NCC(=O)N[C@@H](CCCNC(=N)N)C(=O)N[C@@H](CC(C)C)C(=O)N[C@@H](CO)C(=O)N[C@@H](C)C(=O)N[C@@H](CCC(=O)O)C(=O)N[C@@H](CC(C)C)C(=O)N[C@@H](Cc1cnc[nH]1)C(=O)N[C@@H](CCC(=O)O)C(=O)N[C@@H](CC(C)C)C(=O)N[C@@H](C)C(=O)N[C@H](C(=O)N[C@@H](CC(C)C)C(=O)N1CCC[C@H]1C(=O)N[C@@H](CCCNC(=N)N)C(=O)N[C@H](C(=O)N[C@@H](CCC(=O)O)C(=O)N[C@H](C(=O)NCC(=O)N[C@@H](CO)C(=O)NCC(=O)N[C@@H](CO)C(=O)N1CCC[C@H]1C(N)=O)[C@@H](C)O)[C@@H](C)O)[C@@H](C)O ({C20 diacid-γGlu-AEEA-AEEA-AEEA-AEEA-AEEA}-ASELSTAALGRLSAELHELATLPRTETGSGSP-NH2) | 0.015 nM | 0.01 nM | 0.066 nM | 0.027 nM | > 45 h | 100% | ≥ 200 µM | ≥ 200 µM | ≥ 200 µM | ≥ 200 µM | ≥ 200 µM | ≥ 200 µM | ≥ 200 µM | ≥ 200 µM |  |
| CC(C)C[C@H](NC(=O)[C@H](CCCNC(=N)N)NC(=O)CNC(=O)[C@H](CC(C)C)NC(=O)[C@@H](NC(=O)[C@H](C)NC(=O)[C@@H](NC(=O)[C@H](CO)NC(=O)[C@H](CC(C)C)NC(=O)[C@H](CCC(N)=O)NC(=O)[C@H](CO)NC(=O)[C@H](C)NC(=O)CC[C@H](NC(=O)CCCCCCCCCCCCCCCCCCC(=O)O)C(=O)O)[C@@H](C)O)C(C)C)C(=O)N[C@@H](CO)C(=O)N[C@@H](CCC(N)=O)C(=O)N[C@@H](CCC(=O)O)C(=O)N[C@@H](CC(C)C)C(=O)N[C@@H](Cc1cnc[nH]1)C(=O)N[C@@H](CCC(=O)O)C(=O)N[C@@H](CC(C)C)C(=O)N[C@@H](CCC(N)=O)C(=O)N[C@H](C(=O)N[C@@H](Cc1ccc(O)cc1)C(=O)N1CCC[C@H]1C(=O)N[C@@H](CCCNC(=N)N)C(=O)N[C@H](C(=O)N[C@@H](CCC(=O)O)C(=O)N[C@H](C(=O)NCC(=O)N[C@@H](CO)C(=O)N[C@@H](CCC(N)=O)C(=O)N[C@H](C(=O)N[C@@H](Cc1ccc(O)cc1)C(N)=O)[C@@H](C)O)[C@@H](C)O)[C@@H](C)O)[C@@H](C)O ({C20 diacid-γGlu}-ASQLSTAVLGRLSQELHELQTYPRTETGSQTY-NH2) | 0.062 nM |  | 0.067 nM | 0.036 nM | 1 h | 16% | ≥ 200 µM | ≥ 200 µM | ≥ 200 µM |  | ≥ 200 µM | ≥ 200 µM | ≥ 200 µM | ≥ 200 µM |  |
